From US4124598A, “Psoralens” (Hoffmann-La Roche Inc., priority 1976, dated 1978)
Where a name gives a salt, the structure may show the parent alone.

Experiments:
[1] = test system: Calf thymus DNA; experiment: Equilibrium dialysis, non-covalent binding to DNA; details: for Kd: 0.01 M Tris, non-covalent binding; for (PS)/(S) for DNA in Saturated Solution: occupied/unoccupied binding sites
Procedure: (§1) In order to establish the dissociation constants from DNA and RNA, the non-covalent binding was ascertained. Non-covalent binding determines the presence of the psoralen within the nucleic acid helix. Its presence is determined in the absence of any radiant energy. As noted before, radiant energy is necessary to activate the psoralen covalent binding reaction with nucleic acid base pairs.
(§2) To determine the non-covalent binding, Calf thymus DNA (Sigma Type I) was dissolved in a 0.01 M Tris 0.001 M EDTA pH 8.5 buffer at a concentration of 25 ug/ml. A quantity of this DNA solution was placed in a dialysis bag (pretreated by boiling in NaHCO3), and the various tritiated derivatives were added inside the bag in half the cases and outside the bag in the other half. The molar ratio of psoralen molecules to base pairs was approximately 1:25. The bags were placed in vials filled with 18 ml of buffer and put on a shaker for 48-60 hours. After this period, radioactivity was determined both inside and outside the bags and the optical density of the DNA solution measured. From this information, and the specific activity of each derivative, the amount of drug non-covalently bound to the DNA was determined. Binding of the derivatives to Drosophila melanogaster ribosomal RNA was measured in exactly the same manner.
(§3) The units of the dissociation constants are moles/liter. Solubilities and molar extinction coefficients (ε) were obtained in pure water, the equilibrium constants (KD) in 0.01 M Tris.

[2] = molecular target: Drosophila melanogaster ribosomal RNA; experiment: Equilibrium dialysis, non-covalent binding to RNA; details: for Kd: 0.01 M Tris, non-covalent binding; for (PS)/(S) for RNA in Saturated Solution: occupied/unoccupied binding sites
Procedure: as §1, §2, §3

[3] = Solubility in pure water; type: physicochemical; details: for solubility: pure water
Source text: In order to study solubilities and dissociation constants, it is most convenient to prepare tritiated derivatives of the psoralen compounds. Thus, well-known radiation counting methods may be utilized to monitor the presence of the psoralens in solutions, or in nucleic acids.
as §3

[4] = Molar extinction coefficient in pure water; type: physicochemical
Source text: as §3

[5] = test system: DNA (calf thymus); experiment: Low intensity photoaddition (covalent binding) to DNA; details: for A (footnote 1, shown as drawing 9) / B = percent of added psoralen covalently bound: 25 μg/ml DNA, psoralen:base pair 1:3; for moles of psoralen bound per mole of base pairs: 90 minutes irradiation
Procedure: (§4) The covalent binding of the psoralens to DNA and RNA was studied. To achieve covalent binding, it is necessary to supply radiant energy (light) to the binding sites. These studies were carried out as follows:
(§5) The DNA and RNA used in the covalent binding studies have been described previously. Samples of each nucleic acid were prepared at a concentration of 25 ug/ml in 0.01 m Tris 0.001 M EDTA buffer. The radioactive-psoralen derivatives were added in a ratio of one psoralen for every three base pairs. The irradiation was carried out in one of the two following devices.
The low intensity irradiations were performed with a modified slide projector which was fitted with a 400 watt General Electric mercury vapor lamp (H 400 A 33-1/T16). The image of the arc was focused on the same cell, jacketed by a cobaltous nitrate solution which was also used for the high intensity irradiations. The light intensity delivered to the sample in this device was 4 to 6 mw/cm^2. The high intensity irradiations were carried out in a device containing two of the sam 400 watt General Electric mercury vapor lamps which were mounted on either side of a double walled sample chamber at a distance between centers of 4.0 cm. The chamber was cooled to 10° C. by continuous circulation of a temperature regulated solution of cobaltous nitrate (40% w/w). The cobalt solution served as an ultraviolet filter which allowed a maximum transmittance of 365 nm light and a window from approximately 340-380 nm. The intensity of the light at the surface of the inner sample chamber was approximately 100 mw/cm^2. The nucleic acid-psoralen mixture was placed in the inner chamber where it was continuously stirred throughout the irradiation. […] Each aliquot was then extracted twice with chloroform/iso-amyl alcohol (24:1) to remove unreacted psoralen followed by exhaustive dialysis against 0.01 M Tris, 0.001 M EDTA buffer. The successful extraction of unbound psoralen by the chloroform-isoamyl alcohol required the aqueous phase to be at least 0.15 M in NaCl. Finally, the optical density of the nucleic-acid psoralen mixture was taken and its radioactivity determined, thus giving the amount of derivative covalently bound to the DNA or RNA. Taking samples, at spaced time intervals also permitted an assessment of the kinetics of the covalent binding.

[6] = test system: DNA (calf thymus); experiment: High intensity photoaddition (covalent binding) to DNA; details: 25 μg/ml DNA, psoralen:base pair 1:3
Procedure: as §4, §5
(§6) The low intensity irradiations were performed with a modified slide projector which was fitted with a 400 watt General Electric mercury vapor lamp (H 400 A 33-1/T16). The image of the arc was focused on the same cell, jacketed by a cobaltous nitrate solution which was also used for the high intensity irradiations. The light intensity delivered to the sample in this device was 4 to 6 mw/cm^2. The high intensity irradiations were carried out in a device containing two of the sam 400 watt General Electric mercury vapor lamps which were mounted on either side of a double walled sample chamber at a distance between centers of 4.0 cm. The chamber was cooled to 10° C. by continuous circulation of a temperature regulated solution of cobaltous nitrate (40% w/w). The cobalt solution served as an ultraviolet filter which allowed a maximum transmittance of 365 nm light and a window from approximately 340-380 nm. The intensity of the light at the surface of the inner sample chamber was approximately 100 mw/cm^2. The nucleic acid-psoralen mixture was placed in the inner chamber where it was continuously stirred throughout the irradiation. Aliquots of each solution (derivative plus nucleic acid) were taken at 20, 40 and 60 minutes. Each aliquot was then extracted twice with chloroform/iso-amyl alcohol (24:1) to remove unreacted psoralen followed by exhaustive dialysis against 0.01 M Tris, 0.001 M EDTA buffer. The successful extraction of unbound psoralen by the chloroform-isoamyl alcohol required the aqueous phase to be at least 0.15 M in NaCl. Finally, the optical density of the nucleic-acid psoralen mixture was taken and its radioactivity determined, thus giving the amount of derivative covalently bound to the DNA or RNA. Taking samples, at spaced time intervals also permitted an assessment of the kinetics of the covalent binding.

[7] = test system: RNA (Drosophila melanogaster ribosomal RNA); experiment: High intensity photoaddition (covalent binding) to RNA; details: 25 μg/ml RNA, psoralen:base pair 1:3
Procedure: as §4, §5, §6

[8] = test system: vesicular stomatitis virus; type: cell-based, Vesicular stomatitis virus Indiana strain; details: for effectiveness in inactivation of vesicular stomatitis virus vs 4,5',8-trimethyl psoralen: high dose rates, e.g., 30 μg/ml
[9] = test system: DNA; experiment: Reactivity with DNA (general statement); type: binding, calf
Procedure: as §4, §5
as §6, with “Each aliquot was then extracted twice with chloroform/iso-amyl alcohol (24:1) to remove unreacted psoralen followed by exhaustive dialysis against 0.01 M Tris, 0.001 M EDTA buffer. The successful extraction of unbound psoralen by the chloroform-isoamyl alcohol required the aqueous phase to be at least 0.15 M in NaCl.” left out, “Taking samples, at spaced time intervals also permitted an assessment of the kinetics of the covalent binding.” left out

Structure (SMILES) | Kd [1] [µM] | (PS)/(S) for DNA in Saturated Solution ([1]; saturated solution) | Kd [2] [µM] | (PS)/(S) for RNA in Saturated Solution [2] | solubility [3] [µg/mL] | solubility ([3]; molar) [µM] | Extinction coefficient ε, 250 nm [4] [L/mol/cm] | rate of reaction with DNA / initial rate of photochemical binding [5] | A (footnote 1, shown as drawing 10) ([6]; 20 min irradiation) | B = percent of added psoralen covalently bound ([6]; 20 min irradiation) [%] | A (footnote 1, shown as drawing 10) ([6]; 40 min irradiation) | B = percent of added psoralen covalently bound ([6]; 40 min irradiation) [%] | A (footnote 1, shown as drawing 10) ([6]; 60 min irradiation) | B = percent of added psoralen covalently bound ([6]; 60 min irradiation) [%] | A (footnote 1, shown as drawing 11) ([7]; 20 min irradiation) | B = percent of added psoralen covalently bound ([7]; 20 min irradiation) [%] | A (footnote 1, shown as drawing 11) ([7]; 40 min irradiation) | B = percent of added psoralen covalently bound ([7]; 40 min irradiation) [%] | A (footnote 1, shown as drawing 11) ([7]; 60 min irradiation) | B = percent of added psoralen covalently bound ([7]; 60 min irradiation) [%] | other results
Cc1oc2c(C)c3oc(=O)cc(C)c3cc2c1CN [4'-aminomethyl-4,5',8-trimethyl psoralen hydrochloride] | 6.6 | 5000 | 20 | 1700 | 10000 | 34000 | 25000 | reacts with DNA much faster than trioxsalen | 4.7 | 63.8 | 4.8 | 62.5 | 4.8 | 62.5 | 5.1 | 59.4 | 5.3 | 57.2 | 5.3 | 57.3 | times more effective at reaching state of site saturation ([1]; calculated, DNA): 10^4 times; times more strongly binding than 4'-hydroxymethyl trioxsalen ([1]; vs 4'-hydroxymethyl trioxsalen): about 100 times; times more strongly binding to DNA than trioxsalen ([1]; vs trioxsalen): about 8 times; times more soluble than 4'-hydroxymethyl trioxsalen ([3]; vs 4'-hydroxymethyl trioxsalen): 150 times; A (footnote 1, shown as drawing 9) ([5]; 5 min irradiation): 15.0; B = percent of added psoralen covalently bound ([5]; 5 min irradiation): 19.3%; A (footnote 1, shown as drawing 9) ([5]; 10 min irradiation): 10.5; B = percent of added psoralen covalently bound ([5]; 10 min irradiation): 27.4%; A (footnote 1, shown as drawing 9) ([5]; 30 min irradiation): 6.9; B = percent of added psoralen covalently bound ([5]; 30 min irradiation): 41.8%; A (footnote 1, shown as drawing 9) ([5]; 60 min irradiation): 5.9; B = percent of added psoralen covalently bound ([5]; 60 min irradiation): 48.7%; A (footnote 1, shown as drawing 9) ([5]; 90 min irradiation): 5.5; B = percent of added psoralen covalently bound ([5]; 90 min irradiation): 52.4%; moles of psoralen bound per mole of base pairs [5]: 0.18 moles per mole of base pairs; molecules in the solution covalently bound to DNA ([5]; after 90 minutes of irradiation): over half; inactivation of vesicular stomatitis virus, comparison in words ([8]; FIG. 2, 1-3 μg/ml, long wavelength UV): undisputed superiority; effectiveness in inactivation of vesicular stomatitis virus vs 4,5',8-trimethyl psoralen [8]: nearly one thousand times more effective; reactivity with DNA [9]: excellent reactivity with DNA
COCc1c(C)oc2c(C)c3oc(=O)cc(C)c3cc12 [4'-methoxymethyl-4,5',8-trimethyl psoralen] | 94 | 0.39 | 1000 | 0.037 | 10 | 37 | 21000 | – | 14.1 | 21.3 | 14.3 | 21.0 | 13.8 | 21.7 | 264.2 | 1.2 | 216.8 | 1.4 | 183.4 | 1.6 | DNA site saturation, one psoralen per base pairs ([1]; saturated solution, expected from KD and solubility): one psoralen per three base pairs; (PS)/(S) for DNA in Saturated Solution ([1]; saturated solution, listed as 4'-methoxymethyl trioxsalen): 0.5; times more strongly binding to DNA than methoxsalen ([1]; vs methoxsalen): 10 times; effectiveness in inactivation of vesicular stomatitis virus vs 4,5',8-trimethyl psoralen [8]: nearly one thousand times more effective; reactivity with DNA [9]: excellent reactivity with DNA
Cc1cc2cc3c(C)cc(=O)oc3c(C)c2o1 [trioxsalen, 4,5',8-trimethyl psoralen, reference compound] | 56 | 0.046 | 100 | 0.026 | 0.6 | 2.6 | 18000 | greater initial rate of photochemical binding than 4'-hydroxymethyl trioxsalen | 11.6 | 25.9 | 10.6 | 28.3 | 12.2 | 24.6 | 23.1 | 13.0 | 21.6 | 13.9 | 20.6 | 14.8 | one psoralen per n base pairs at equilibrium (best achievable) ([1]; saturated solution): ~20 base pairs; times stronger binding to DNA than 4'-hydroxymethyl trioxsalen ([1]; vs 4'-hydroxymethyl trioxsalen (trioxsalen binding)): 5 times; times stronger binding to DNA than 4'-methoxymethyl trioxsalen ([1]; vs 4'-methoxymethyl trioxsalen): 2 times; A (footnote 1, shown as drawing 9) ([5]; 5 min irradiation): 19.7; B = percent of added psoralen covalently bound ([5]; 5 min irradiation): 15.5%; A (footnote 1, shown as drawing 9) ([5]; 10 min irradiation): 15.5; B = percent of added psoralen covalently bound ([5]; 10 min irradiation): 19.7%; A (footnote 1, shown as drawing 9) ([5]; 30 min irradiation): 13.7; B = percent of added psoralen covalently bound ([5]; 30 min irradiation): 22.1%; A (footnote 1, shown as drawing 9) ([5]; 60 min irradiation): 12.8; B = percent of added psoralen covalently bound ([5]; 60 min irradiation): 23.6%; A (footnote 1, shown as drawing 9) ([5]; 90 min irradiation): 10.6; B = percent of added psoralen covalently bound ([5]; 90 min irradiation): 28.5%; moles of psoralen bound per mole of base pairs [5]: 0.09 moles per mole of base pairs; effect of increasing concentration on ability to inactivate the virus ([8]; FIG. 1, from 10 μg/ml to 30 μg/ml): no effect on its ability to inactivate the virus
